In US20020137725A1, “Use of tagatose in promoting cardiovascular health” (priority 2001, published 2002):

Columns and labels:
[1] = Example 1: tagatose given to a human patient with lowered HDL level; format: in vivo; conditions: 15 grams with each of three meals per day, after six months
Description: A human patient is diagnosed as having a lowered HDL level than that found in a previous visit. The physician is concerned that this may forecast atherosclerosis, possibly leading to a heart attack, or to a stroke. The physician prescribes that the patient take 15 grams of tagatose with each of three meals per day. […] The physician is satisfied with the improvement and prescribes continued […] doses of tagatose per meal as a means of maintaining and improving the patient's cardiovascular health.

[2] = Pilot study of long term effects of D-tagatose in humans with type-2 diabetes (University of Maryland); format: in vivo; conditions: long term treatment; each of the subjects, both the patients (type-2 diabetes) and the controls
Experimental: U.S. Pat. No. 5,447,917 discloses and claims a method for treating diabetes by administering to a mammal an amount of D-tagatose effective to inhibit the rise in blood sugar associated with the consumption of sugar. A pilot study was conducted at the University of Maryland to investigate the long term effects of D-tagatose in humans with type-2 diabetes.

Row | Compound | patient's HDL level versus immediately before treatment [1] | HDL-cholesterol levels [2]
1 | O=C(CO)[C@@H](O)[C@@H](O)[C@H](O)CO [tagatose] | significantly higher | –
2 | O=C(CO)[C@@H](O)[C@@H](O)[C@H](O)CO [D-tagatose] | – | increase in HDL-cholesterol levels
